{"source": "ChEMBL document CHEMBL1201862", "about": "“PubChem BioAssay data set” (2004)", "experiment_in_all_cases": "NCI-60 cell line screen, 48 h", "key": {"[1]": {"test_system": "786-0"}, "[2]": {"test_system": "IGROV-1"}, "[3]": {"test_system": "COLO 205"}, "[4]": {"test_system": "UACC-62"}, "[5]": {"test_system": "HCT-15"}, "[6]": {"test_system": "SK-MEL-28"}, "[7]": {"test_system": "Malme-3M"}, "[8]": {"test_system": "A549"}, "[9]": {"test_system": "HCT-116"}, "[10]": {"test_system": "UO-31"}, "[11]": {"test_system": "HCC 2998"}, "[12]": {"test_system": "NCI-H23"}, "[13]": {"test_system": "HT-29"}, "[14]": {"test_system": "TK-10"}, "[15]": {"test_system": "CAKI-1"}, "[16]": {"test_system": "EKVX"}, "[17]": {"test_system": "SR"}, "[18]": {"test_system": "SK-OV-3"}, "[19]": {"test_system": "OVCAR-3"}, "[20]": {"test_system": "RXF 393"}, "[21]": {"test_system": "HL-60"}, "[22]": {"test_system": "NCI-H522"}, "[23]": {"test_system": "RPMI-8226"}, "[24]": {"test_system": "OVCAR-5"}, "[25]": {"test_system": "HOP-92"}, "[26]": {"test_system": "OVCAR-4"}, "[27]": {"test_system": "SN12C"}, "[28]": {"test_system": "M19-MEL"}, "[29]": {"test_system": "A498"}, "[30]": {"test_system": "KM-20L2"}, "[31]": {"test_system": "OVCAR-8"}, "[32]": {"test_system": "HOP-62"}, "[33]": {"test_system": "DMS-114"}, "[34]": {"test_system": "K562"}, "[35]": {"test_system": "CCRF-CEM"}, "[36]": {"test_system": "DLD-1"}, "[37]": {"test_system": "SK-MEL-2"}, "[38]": {"test_system": "M14"}, "[39]": {"test_system": "SNB-19"}, "[40]": {"test_system": "U-251"}, "[41]": {"test_system": "SF-539"}, "[42]": {"test_system": "SF-268"}, "[43]": {"test_system": "SW-620"}, "[44]": {"test_system": "SK-MEL-5"}, "[45]": {"test_system": "LXFL 529"}, "[46]": {"test_system": "MOLT-4"}, "[47]": {"test_system": "HOP-18"}, "[48]": {"test_system": "KM12"}, "[49]": {"test_system": "NCI-H460"}, "[50]": {"test_system": "LOX IMVI"}, "[51]": {"test_system": "DMS-273"}, "[52]": {"test_system": "SNB-78"}, "[53]": {"test_system": "SF-295"}, "[54]": {"test_system": "UACC-257"}, "[55]": {"test_system": "SNB-75"}, "[56]": {"test_system": "ACHN"}, "[57]": {"test_system": "NCI-H226"}}, "note": "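Assay format: 96-well plates, 48-hour exposure. GI50 is the concentration that inhibits growth by half.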 Active and inactive are the calls of the source. Rule as the data show it: active = GI50 up to about 1.1 µM and inactive = higher."}
{"smiles": "Cc1no[n+]([O-])c1/C=N/NS(=O)(=O)c1ccccc1", "values": [{"measurement": "GI50", "setting": "[1]", "result": "> 100 µM (inactive)"}, {"measurement": "GI50", "setting": "[2]", "result": "> 100 µM (inactive)"}, {"measurement": "GI50", "setting": "[3]", "result": "> 100 µM (inactive)"}, {"measurement": "GI50", "setting": "[4]", "result": "> 100 µM (inactive)"}, {"measurement": "GI50", "setting": "[5]", "result": "> 100", "unit": "µM"}, {"measurement": "GI50", "setting": "[6]", "result": "> 100 µM (inactive)"}, {"measurement": "GI50", "setting": "[7]", "result": "> 100 µM (inactive)"}, {"measurement": "GI50", "setting": "[8]", "result": "> 100 µM (inactive)"}, {"measurement": "GI50", "setting": "[9]", "result": "> 100 µM (inactive)"}, {"measurement": "GI50", "setting": "[10]", "result": "> 100 µM (inactive)"}, {"measurement": "GI50", "setting": "[11]", "result": "> 100 µM (inactive)"}, {"measurement": "GI50", "setting": "[12]", "result": "> 100 µM (inactive)"}, {"measurement": "GI50", "setting": "[13]", "result": "> 100 µM (inactive)"}, {"measurement": "GI50", "setting": "[14]", "result": "> 100 µM (inactive)"}, {"measurement": "GI50", "setting": "[15]", "result": "> 100 µM (inactive)"}, {"measurement": "GI50", "setting": "[16]", "result": "> 100 µM (inactive)"}, {"measurement": "GI50", "setting": "[17]", "result": "> 100 µM (inactive)"}, {"measurement": "GI50", "setting": "[18]", "result": "> 100 µM (inactive)"}, {"measurement": "GI50", "setting": "[19]", "result": "> 100 µM (inactive)"}, {"measurement": "GI50", "setting": "[20]", "result": "> 100 µM (inactive)"}, {"measurement": "GI50", "setting": "[21]", "result": "> 100 µM (inactive)"}, {"measurement": "GI50", "setting": "[22]", "result": "> 100 µM (inactive)"}, {"measurement": "GI50", "setting": "[23]", "result": "> 100 µM (inactive)"}, {"measurement": "GI50", "setting": "[24]", "result": "> 100 µM (inactive)"}, {"measurement": "GI50", "setting": "[25]", "result": "> 100 µM (inactive)"}, {"measurement": "GI50", "setting": "[26]", "result": "> 100 µM (inactive)"}, {"measurement": "GI50", "setting": "[27]", "result": "> 100 µM (inactive)"}, {"measurement": "GI50", "setting": "[28]", "result": "> 100 µM (inactive)"}, {"measurement": "GI50", "setting": "[29]", "result": "75.3 µM (inactive)"}, {"measurement": "GI50", "setting": "[30]", "result": "> 100 µM (inactive)"}, {"measurement": "GI50", "setting": "[31]", "result": "> 100 µM (inactive)"}, {"measurement": "GI50", "setting": "[32]", "result": "> 100 µM (inactive)"}, {"measurement": "GI50", "setting": "[33]", "result": "> 100 µM (inactive)"}, {"measurement": "GI50", "setting": "[34]", "result": "> 100 µM (inactive)"}, {"measurement": "GI50", "setting": "[35]", "result": "> 10 µM (inactive)"}, {"measurement": "GI50", "setting": "[36]", "result": "> 100 µM (inactive)"}, {"measurement": "GI50", "setting": "[37]", "result": "> 100 µM (inactive)"}, {"measurement": "GI50", "setting": "[38]", "result": "> 100 µM (inactive)"}, {"measurement": "GI50", "setting": "[39]", "result": "> 100 µM (inactive)"}, {"measurement": "GI50", "setting": "[40]", "result": "> 100 µM (inactive)"}, {"measurement": "GI50", "setting": "[41]", "result": "> 100 µM (inactive)"}, {"measurement": "GI50", "setting": "[42]", "result": "> 100 µM (inactive)"}, {"measurement": "GI50", "setting": "[43]", "result": "> 100 µM (inactive)"}, {"measurement": "GI50", "setting": "[44]", "result": "> 100 µM (inactive)"}, {"measurement": "GI50", "setting": "[45]", "result": "> 100 µM (inactive)"}, {"measurement": "GI50", "setting": "[46]", "result": "> 100 µM (inactive)"}, {"measurement": "GI50", "setting": "[47]", "result": "> 100 µM (inactive)"}, {"measurement": "GI50", "setting": "[48]", "result": "> 100 µM (inactive)"}]}
{"smiles": "[O-][S+]1Nc2c(Cl)cc(Cl)c(Cl)c2S1", "note": "(stereo not given)", "values": [{"measurement": "GI50", "setting": "[49]", "result": "> 100 µM (inactive)"}, {"measurement": "GI50", "setting": "[1]", "result": "> 100 µM (inactive)"}, {"measurement": "GI50", "setting": "[50]", "result": "78.9 µM (inactive)"}, {"measurement": "GI50", "setting": "[51]", "result": "> 100 µM (inactive)"}, {"measurement": "GI50", "setting": "[2]", "result": "> 100 µM (inactive)"}, {"measurement": "GI50", "setting": "[3]", "result": "> 100 µM (inactive)"}, {"measurement": "GI50", "setting": "[4]", "result": "> 100 µM (inactive)"}, {"measurement": "GI50", "setting": "[5]", "result": 44.1, "unit": "µM"}, {"measurement": "GI50", "setting": "[6]", "result": "> 100 µM (inactive)"}, {"measurement": "GI50", "setting": "[7]", "result": "> 100 µM (inactive)"}, {"measurement": "GI50", "setting": "[8]", "result": "> 100 µM (inactive)"}, {"measurement": "GI50", "setting": "[9]", "result": "> 100 µM (inactive)"}, {"measurement": "GI50", "setting": "[10]", "result": "86.9 µM (inactive)"}, {"measurement": "GI50", "setting": "[11]", "result": "> 100 µM (inactive)"}, {"measurement": "GI50", "setting": "[12]", "result": "> 100 µM (inactive)"}, {"measurement": "GI50", "setting": "[13]", "result": "> 100 µM (inactive)"}, {"measurement": "GI50", "setting": "[14]", "result": "> 100 µM (inactive)"}, {"measurement": "GI50", "setting": "[15]", "result": "41.2 µM (inactive)"}, {"measurement": "GI50", "setting": "[16]", "result": "> 100 µM (inactive)"}, {"measurement": "GI50", "setting": "[17]", "result": "43.1 µM (inactive)"}, {"measurement": "GI50", "setting": "[18]", "result": "> 100 µM (inactive)"}, {"measurement": "GI50", "setting": "[52]", "result": "> 100 µM (inactive)"}, {"measurement": "GI50", "setting": "[19]", "result": "78.2 µM (inactive)"}, {"measurement": "GI50", "setting": "[20]", "result": "> 100 µM (inactive)"}, {"measurement": "GI50", "setting": "[21]", "result": "32.7 µM (inactive)"}, {"measurement": "GI50", "setting": "[22]", "result": "78.9 µM (inactive)"}, {"measurement": "GI50", "setting": "[23]", "result": "> 100 µM (inactive)"}, {"measurement": "GI50", "setting": "[24]", "result": "> 100 µM (inactive)"}, {"measurement": "GI50", "setting": "[25]", "result": "35.2 µM (inactive)"}, {"measurement": "GI50", "setting": "[53]", "result": "> 100 µM (inactive)"}, {"measurement": "GI50", "setting": "[26]", "result": "> 100 µM (inactive)"}, {"measurement": "GI50", "setting": "[54]", "result": "> 100 µM (inactive)"}, {"measurement": "GI50", "setting": "[27]", "result": "> 100 µM (inactive)"}, {"measurement": "GI50", "setting": "[28]", "result": "> 100 µM (inactive)"}, {"measurement": "GI50", "setting": "[29]", "result": "82.6 µM (inactive)"}, {"measurement": "GI50", "setting": "[30]", "result": "> 100 µM (inactive)"}, {"measurement": "GI50", "setting": "[31]", "result": "> 100 µM (inactive)"}, {"measurement": "GI50", "setting": "[32]", "result": "> 100 µM (inactive)"}, {"measurement": "GI50", "setting": "[33]", "result": "76.2 µM (inactive)"}, {"measurement": "GI50", "setting": "[34]", "result": "74.3 µM (inactive)"}, {"measurement": "GI50", "setting": "[35]", "result": "39.3 µM (inactive)"}, {"measurement": "GI50", "setting": "[55]", "result": "22.7 µM (inactive)"}, {"measurement": "GI50", "setting": "[56]", "result": "> 100 µM (inactive)"}, {"measurement": "GI50", "setting": "[36]", "result": "95.7 µM (inactive)"}, {"measurement": "GI50", "setting": "[37]", "result": "> 100 µM (inactive)"}, {"measurement": "GI50", "setting": "[38]", "result": "> 100 µM (inactive)"}, {"measurement": "GI50", "setting": "[39]", "result": "> 100 µM (inactive)"}, {"measurement": "GI50", "setting": "[40]", "result": "38.6 µM (inactive)"}, {"measurement": "GI50", "setting": "[57]", "result": "> 100 µM (inactive)"}, {"measurement": "GI50", "setting": "[41]", "result": "> 100 µM (inactive)"}, {"measurement": "GI50", "setting": "[42]", "result": "> 100 µM (inactive)"}, {"measurement": "GI50", "setting": "[43]", "result": "5.62 µM (inactive)"}, {"measurement": "GI50", "setting": "[44]", "result": "70.6 µM (inactive)"}, {"measurement": "GI50", "setting": "[45]", "result": "> 100 µM (inactive)"}, {"measurement": "GI50", "setting": "[46]", "result": "34.7 µM (inactive)"}, {"measurement": "GI50", "setting": "[47]", "result": "> 100 µM (inactive)"}, {"measurement": "GI50", "setting": "[48]", "result": "> 100 µM (inactive)"}]}
